Reference: ChEMBL document CHEMBL5728238, “Inhibiting agents for Bruton's tyrosine kinase” (2021)

Target: Tyrosine-protein kinase BTK (Homo sapiens, UniProt Q06187)
Test: In Vitro Kinase Assay: The purpose of the BTK in vitro assay is to determine compound potency against BTK through the measurement of IC50. Compound inhibition is measured after monitoring the amount of phosphorylation of a fluorescein-labeled polyGAT peptide (Invitrogen PV3611) in the presence of active BTK enzyme (Upstate 14-552), ATP, and inhibitor. The BTK kinase reaction was done in a black 96 well plate (costar 3694). For a typical assay, a […] aliquot of a ATP/peptide master mix (final concentration; […], polyGAT 100 nM) in kinase buffer (10 mM Tris-HCl pH 7.5, 10 mM MgCl2, 200 μM Na3PO4, 5 mM DTT, 0.01% Triton X-100, and 0.2 mg/ml casein) is added to each well. Next, […] of a 4-fold, 40× compound titration in 100% DMSO solvent is added, followed by adding 15 μL of BTK enzyme mix in 1× kinase buffer (with a final concentration of 0.25 nM). The assay is incubated for 30 minutes before being stopped with 28 μL of a 50 mM EDTA solution. Aliquots (5 μL) of the kinase reaction are transferred to a low volume white 384 well plate (Corning 3674), and 5 μL of a 2× detection buffer (Invitrogen PV3574, with 4 nM Tb-PY20 antibody, Invitrogen PV3552) is added. The plate is covered and incubated for 45 minutes at room temperature. Time resolved fluorescence (TRF) on Molecular Devices M5 (332 nm excitation; 488 nm emission; 518 nm fluorescein emission) is measured. […]

Chain of Tyrosine-protein kinase BTK (Q06187 whole entry): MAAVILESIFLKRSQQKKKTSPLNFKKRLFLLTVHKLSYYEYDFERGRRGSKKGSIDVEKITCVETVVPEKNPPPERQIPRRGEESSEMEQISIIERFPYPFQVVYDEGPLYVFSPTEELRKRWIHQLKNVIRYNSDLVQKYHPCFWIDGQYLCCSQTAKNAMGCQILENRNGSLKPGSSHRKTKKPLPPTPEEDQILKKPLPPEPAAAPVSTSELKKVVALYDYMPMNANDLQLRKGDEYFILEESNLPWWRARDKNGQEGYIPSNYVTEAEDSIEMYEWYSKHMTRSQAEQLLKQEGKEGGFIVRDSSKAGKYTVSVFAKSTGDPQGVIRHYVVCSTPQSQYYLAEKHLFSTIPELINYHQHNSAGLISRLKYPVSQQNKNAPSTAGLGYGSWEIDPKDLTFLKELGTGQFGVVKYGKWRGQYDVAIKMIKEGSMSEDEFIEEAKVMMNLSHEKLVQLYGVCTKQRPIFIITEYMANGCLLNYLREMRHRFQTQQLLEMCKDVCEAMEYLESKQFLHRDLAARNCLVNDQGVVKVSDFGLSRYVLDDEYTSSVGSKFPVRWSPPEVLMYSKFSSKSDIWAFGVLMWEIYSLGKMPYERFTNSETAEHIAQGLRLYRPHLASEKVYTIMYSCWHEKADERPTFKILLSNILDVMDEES

Row | Structure (SMILES) | IC50
1 | Cc1cc(-c2ncnc(Nc3cnn(C)c3)n2)ccc1CNC(=O)c1cc(C(C)(C)C)on1 | < 1 nM
2 | Cc1cc(-c2ncnc(Nc3cnn(C)c3)n2)ccc1CNC(=O)c1noc(C2[C@@H](C)[C@H]2C)n1 (some centres not stated) | < 1 nM
